Article PMC4011036, “Higher Desolvation Energy Reduces Molecular Recognition in Multi-Drug Resistant HIV-1 Protease” (Biology, 2012)

Assays:
[1] = test system: four MDR protease variants; details: four clinical MDR isolates, enzyme inhibition assays, relative to NL4-3 (WT)
Excerpt: HIV protease Forster Resonance Energy Transfer (FRET) substrate I used in the IC50 determination and substrate interference was purchased from AnaSpec, Inc. (Fremont, CA, USA). The US FDA-approved HIV-1 protease inhibitors were kindly provided by the NIH AIDS Research and Reference Reagent Program (www.aidsreagent.org). The CA/p2 pseudopeptide with a reduced scissile peptide bond [-ψ(CH2NH)-] was synthesized in the Department of Chemistry, Wayne State University. The nine substrate hepta-peptides were purchase from SynBioSci Corporation, Livermore, CA, USA. […] The IC50 determination was described previously. […] The protease concentration was adjusted to a substrate cleavage velocity of 5 Relative Fluorescence Units (RFU)/min in the absence of regular substrate. […] Upon the addition of the HIV-1 protease, the fluorescent signal emitted through the cleavage of the FRET substrate was recorded using SpectraMax M5 (Molecular Devices, Sunnyvale, CA, USA) at an excitation wavelength of 340 nm and an emission wavelength of 490 nm. The average velocity of FRET substrate cleavage in RFU/min was calculated based on fluorescent signal at 30 time point over 30 min. In the control experiment, the average velocity of FRET substrate cleavage was determined in the absence of regular substrates. […]

[2] = target: T1, HIV-1 protease MDR 769 (Human immunodeficiency virus type 1 group M subtype B, UniProt P12497, A559V/I542V/I550V/I572V/L498I/L551P/L578M/M524V/M534L/Q495K/V570A); assay: HIV-1 protease inhibition (FRET substrate cleavage), MDR 769; format: biochemical; details: FRET substrate I, 0.1 M sodium acetate, 1.0 M NaCl, 1.0 mM EDTA, 1.0 mM DTT, 10% DMSO, 1 mg/mL BSA, pH 4.7, fluorescence 340/490 nm, read-out: IC50 of HIV-1 protease inhibitors
T1 construct: made in house; host or cells: E. coli (pET21b)
Protocol: (§1) The HIV-1 protease reaction buffer was 0.1 M sodium acetate, 1.0 M sodium chloride, 1.0 mM ethylenediaminetetraacetic acid (EDTA), 1.0 mM DTT, 10% dimethylsulfoxide (DMSO), and 1 mg/mL bovine serum albumin (BSA) at pH 4.7. The protease concentration was adjusted to a substrate cleavage velocity of 5 Relative Fluorescence Units (RFU)/min in the absence of regular substrate. […] Upon the addition of the HIV-1 protease, the fluorescent signal emitted through the cleavage of the FRET substrate was recorded using SpectraMax M5 (Molecular Devices, Sunnyvale, CA, USA) at an excitation wavelength of 340 nm and an emission wavelength of 490 nm. The average velocity of FRET substrate cleavage in RFU/min was calculated based on fluorescent signal at 30 time point over 30 min.

[3] = target: T2, HIV-1 protease MDR 3761 (Human immunodeficiency virus type 1 group M subtype B, UniProt P12497, A559I/G561T/I503V/I552V/I572V/I581L/K508I/L498I/L507I/L551P/L578M/M534I/P567S/Q495K/T500A); assay: HIV-1 protease inhibition (FRET substrate cleavage), MDR 3761; format: biochemical; details: FRET substrate I, 0.1 M sodium acetate, 1.0 M NaCl, 1.0 mM EDTA, 1.0 mM DTT, 10% DMSO, 1 mg/mL BSA, pH 4.7, fluorescence 340/490 nm, read-out: IC50 of HIV-1 protease inhibitors
T2 construct: made in house; host or cells: E. coli (pET21b)
Protocol: as §1

[4] = target: T3, HIV-1 protease NL4-3 (Human immunodeficiency virus type 1 group M subtype B, UniProt P12497, Q495K); assay: HIV-1 protease inhibition (FRET substrate cleavage), NL4-3 (WT); format: biochemical; details: FRET substrate I, 0.1 M sodium acetate, 1.0 M NaCl, 1.0 mM EDTA, 1.0 mM DTT, 10% DMSO, 1 mg/mL BSA, pH 4.7, fluorescence 340/490 nm, read-out: IC50 of HIV-1 protease inhibitors
T3 construct: made in house; host or cells: E. coli (pET21b)
Protocol: as §1

[5] = target: T4, HIV-1 protease MDR 1385 (Human immunodeficiency virus type 1 group M subtype B, UniProt P12497, A559V/I581L/L498F/L551P/L577M/L578M/M524I/M534I/N525D/Q495K/R545K/V570T); assay: HIV-1 protease inhibition (FRET substrate cleavage), MDR 1385; format: biochemical; details: FRET substrate I, 0.1 M sodium acetate, 1.0 M NaCl, 1.0 mM EDTA, 1.0 mM DTT, 10% DMSO, 1 mg/mL BSA, pH 4.7, fluorescence 340/490 nm, read-out: IC50 of HIV-1 protease inhibitors
T4 construct: made in house; host or cells: E. coli (pET21b)
Protocol: as §1

[6] = target: T5, HIV-1 protease MDR 807 (Human immunodeficiency virus type 1 group M subtype B, UniProt P12497, A559V/G536V/I542T/I550V/I581L/L498I/L551Q/M534I/Q495K/Q549N/R529K/T562A/V565I/V570A); assay: HIV-1 protease inhibition (FRET substrate cleavage), MDR 807; format: biochemical; details: FRET substrate I, 0.1 M sodium acetate, 1.0 M NaCl, 1.0 mM EDTA, 1.0 mM DTT, 10% DMSO, 1 mg/mL BSA, pH 4.7, fluorescence 340/490 nm, read-out: IC50 of HIV-1 protease inhibitors
T5 construct: made in house; host or cells: E. coli (pET21b)
Protocol: as §1

SMILES | resistance of MDR variants to inhibitors (in words) [1] | IC50 [2] [nM] | IC50 [3] [nM] | IC50 [4] [nM] | IC50 [5] [nM] | IC50 [6] [nM]
Cc1cccc(C)c1OCC(=O)N[C@@H](Cc1ccccc1)[C@@H](O)C[C@H](Cc1ccccc1)NC(=O)[C@H](C(C)C)N1CCCNC1=O [LPV, lopinavir] | lower relative resistance |  |  |  |  | 
CC(C)CN(C[C@@H](O)[C@H](Cc1ccccc1)NC(=O)O[C@H]1CCOC1)S(=O)(=O)c1ccc(N)cc1 [APV, amprenavir] |  | 4.8 | 4.1 | 0.43 | 3.1 | 2.9
Cc1c(O)cccc1C(=O)N[C@@H](CSc1ccccc1)[C@H](O)CN1C[C@H]2CCCC[C@H]2C[C@H]1C(=O)NC(C)(C)C [NFV, nelfinavir] |  | 110 | 430 | 1.6 | 230 | 210
CCC[C@@]1(CCc2ccccc2)CC(O)=C([C@H](CC)c2cccc(NS(=O)(=O)c3ccc(C(F)(F)F)cn3)c2)C(=O)O1 [TPV, tipranavir] |  | 0.65 | 0.63 | 0.24 | 2.8 | 0.63
COC(=O)N[C@H](C(=O)N[C@@H](Cc1ccccc1)[C@@H](O)CN(Cc1ccc(-c2ccccn2)cc1)NC(=O)[C@@H](NC(=O)OC)C(C)(C)C)C(C)(C)C [ATV, atazanavir] |  | 2.9 | 2.2 | 0.19 | 4.6 | 7.6
